Earlier results on 3 compounds are cited in US20250295562A1, “Formulation for treatment of melasma, hyperpigmentation, and dark spots” (priority 2024, published 2025).

For data set [1] the following is noted: clinical.

Take `CCCCC/C=C\C/C=C\CCCCCCCC(=O)OCC` [Ethyl Linoleate, Ethyl linoleate]: the anti-acne effect entry in data set [1] was “effective anti-acne agent”. As for `CC(C)=CCC1=C(O)C(C(=O)CC(C)C)=C(O)C(CC=C(C)C)(CC=C(C)C)C1=O` [lupulone], the anticollagenase inhibitory activity entry in the data set with collagenase is recorded as “moderate to strong”. Further, in the data set on bacteria, the bactericidal activity result was “exhibited bactericidal activity”. For the compound `COc1cc(O)c(CC=C(C)C)c(O)c1C(=O)/C=C/c1ccc(O)cc1` [xanthohumol], the anticollagenase inhibitory activity result with collagenase is given as “moderate to strong”. Further, in the data set with bacteria, the bactericidal activity entry is given as “exhibited bactericidal activity”.
